Laboratory results as given in patent US20120283802A1, “FAR-INFRARED RADIATION IN USE OF IMPROVING PATENCY OF ARTERIOVENOUS FISTULA, DECREASING FAILURE OF ARTERIOVENOUS FISTULA MATURATION, AND PREVENTING AND/OR AMELIORATING PERIPHERAL ARTERY DISEASES” (priority 2007, published 2012).

Key:
[1] = test system: VCAM-1 expression in HUVECs; assay: TNF-α-induced VCAM-1 expression in HUVECs, western blot; type: cell-based, Human
Experimental: Human umbilical vein endothelial cells (HUVEC) (Walkersville, Md.) were serially cultured on gelatin-coated dishes and propagated in M199 medium supplemented with 20% bovine calf serum, 2 mM L-glutamine, 50 μg/ml endothelial cell growth factor, 90 μg/ml heparin, and 100 U/ml of penicillin and streptomycin. The cells were treated with FIR for 10 min, 20 min, 40 min using WS™ TY101 FIR emitter (WS Far Infrared Medical Technology Co., Ltd., Taipei, Taiwan). The top emitter was set at a height of 25 cm above the surface of the cells. After FIR treatment, the cells were collected at 0 h, 2 h, 4 h, 6 h, 24 h, and 48 h, and then the expression of HO-1 was analyzed by western blot and quantified by laser densitometry. The cells were lysed in a sample buffer (125 mM Tris [pH 6.8], 12.5% glycerol, 2% SDS, 50 mM sodium fluoride, and trace bromophenol blue) and proteins were separated by SDS-PAGE. Following transfer to a nitrocellulose membrane, blots were blocked with PBS and nonfat milk (5%) and then incubated with antibodies directed against HO-1 (1:500). Membranes were then washed in PBS, incubated with horseradish peroxidase-conjugated goat anti-rabbit or anti-goat antibody and developed with commercial chemoluminescence reagents (Amersham, Arlington Heights, Ill.). […]
The expression of VCAM-1 was analyzed under different combinations of TNFα, FIR, HO-1 inhibitor by a western blot. […]

[2] = test system: HO-1 expression; assay: HO-1 expression by western blot quantified by laser densitometry; type: cell-based, Human; settings: relative to control cells; SnPP 20 μM per Table 2
Experimental: Human umbilical vein endothelial cells (HUVEC) (Walkersville, Md.) were serially cultured on gelatin-coated dishes and propagated in M199 medium supplemented with 20% bovine calf serum, 2 mM L-glutamine, 50 μg/ml endothelial cell growth factor, 90 μg/ml heparin, and 100 U/ml of penicillin and streptomycin. The cells were treated with FIR for 10 min, 20 min, 40 min using WS™ TY101 FIR emitter (WS Far Infrared Medical Technology Co., Ltd., Taipei, Taiwan). The top emitter was set at a height of 25 cm above the surface of the cells. After FIR treatment, the cells were collected at 0 h, 2 h, 4 h, 6 h, 24 h, and 48 h, and then the expression of HO-1 was analyzed by western blot and quantified by laser densitometry. […]
U937 cells were classified into 10 groups (F, T, TF, STF, HTF, NTF, S, H, N, or C) according to the combination of different treatment, and the experimental conditions of groups are listed in Table 2. […] After 1 hour of incubation, nonadherent monocytes were removed by PBS washing and the radioactivity associated with adherent cells were quantified by scintillation spectrometry after lysis with 0.2% SDS/0.2 N NaOH. Additionally, the expression of HO-1 was analyzed by western blot and quantified by laser densitometry. […]

C=Cc1c2[n-]c(c1C)/C=c1\[n-]/c(c(C)c1C=C)=C\c1[n-]c(c(CCC(=O)O)c1C)/C=c1\[n-]c(c(C)c1CCC(=O)O)=C2.[Sn+4] [SnPP, tin protoporphyrin]
FIR-induced inhibitory effect of VCAM-1 expression ([1]; TNF-α 100 ng/ml + 40 min FIR, SnPP 10 μM (group 3) and 20 μM (group 4), higher expression at 20 μM): reversed
expression of VCAM-1 ([1]; single treatment with SnPP 20 μM, without pre-treatment with TNF-α (group 6)): did not induce
HO-1 expression, of that of the control cells [2]: approximately 20%
